According to US9101638B2, “Boronic acid derivatives and therapeutic uses thereof” (Rempex Pharmaceuticals, Inc., priority 2013, dated 2015):
Read-outs that look alike come from different tables or passages of the source.

Experiments:
KP1004 (K-2) = assay: Potentiation of aztreonam, strain KP1004; format: cell-based; conditions: for AZT MPC4 K-2 KP1004: minimum BLI concentration inhibiting growth with 4 μg/mL aztreonam
ec302 (TEM-10) [1] = assay: Potentiation of aztreonam, strain ec302; format: cell-based
KP1005 (CTX-M-14) = assay: Potentiation of aztreonam, strain KP1005; format: cell-based
ec308 (SHV-5) [2] = assay: Potentiation of aztreonam, strain ec308; format: cell-based; conditions: for AZT MPC4 SHV-5 ec308: minimum BLI concentration inhibiting growth with 4 μg/mL aztreonam
EC1010 (CMY-6) [3] = assay: Potentiation of aztreonam, strain EC1010; format: cell-based
KP1009 (CTX-M-15) [4] = assay: Potentiation of aztreonam, strain KP1009; format: cell-based
PAM1154/KPC-2 = assay: Biapenem potentiation in PAM1154/KPC-2 (MexAB-OprM lacking); format: cell-based, Pseudomonas aeruginosa; conditions: for PAM11154/KPC-2 Biapenem MPC64: BLI potency to decrease biapenem MIC 64-fold, 32 to 0.5 μg/ml, efflux deficient strain
Method: (§1) Efflux of BLIs from Pseudomonas aeruginosa by the MexAB-OprM efflux pump was also evaluated. […] Due to expression of KPC-2 both strains became resistant to biapenem. […] Potency of BLIs to potentiate biapenem in these strains was determined. […] The ratio of MPC64 values for each BLI in PAM1032/KPC-2 (efflux proficient) and PAM1154/KPC-2 (efflux deficient) was determined to generate the Efflux Index (EI).

KP1009 (CTX-M-15) [5] = assay: Potentiation of tigemonam, strain KP1009; conditions: minimum BLI concentration inhibiting growth with 4 μg/mL tigemonam
ECL1002 = assay: Potentiation of aztreonam, strain ECL1002; format: cell-based; conditions: minimum BLI concentration inhibiting growth with 4 μg/mL aztreonam
ec308 (SHV-5) [6] = assay: Potentiation of tigemonam, strain ec308; format: cell-based; conditions: minimum BLI concentration inhibiting growth with 4 μg/mL tigemonam
SHV-12 = SHV-12 (Klebsiella pneumoniae, UniProt P0AD64, E235K/G234S/L31Q); assay: Inhibition of nitrocefin cleavage by purified SHV-12; format: biochemical; conditions: nitrocefin reporter substrate, purified enzyme; read-out: Ki (SHV-12, NCF)
Chain of SHV-12 (P0AD64 22-286 L31Q/G234S/E235K): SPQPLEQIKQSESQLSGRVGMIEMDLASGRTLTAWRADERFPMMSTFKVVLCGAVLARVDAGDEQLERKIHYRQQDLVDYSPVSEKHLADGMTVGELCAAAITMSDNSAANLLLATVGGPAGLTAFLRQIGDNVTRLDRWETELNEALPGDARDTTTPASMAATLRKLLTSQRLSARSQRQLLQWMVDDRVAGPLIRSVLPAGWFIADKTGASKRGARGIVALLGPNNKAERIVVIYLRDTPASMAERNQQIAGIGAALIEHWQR
Method: (§2) Purified enzymes were mixed with various concentrations of inhibitors in reaction buffer and incubated for 10 min at room temperature. Nitrocefin was added and substrate cleavage profiles were recorded at 490 nm every 10 sec for 10 min.

EC1010 (CMY-6) [7] = format: cell-based
PAM1032/KPC-2 = assay: Biapenem potentiation in PAM1032/KPC-2 (MexAB-OprM overexpressed); format: cell-based, Pseudomonas aeruginosa; conditions: BLI potency to decrease biapenem MIC 64-fold, 32 to 0.5 μg/ml; efflux proficient strain
Method: as §1

ec302 (TEM-10) [8] = assay: Potentiation of tigemonam, strain ec302; format: cell-based
KPC-2 = KPC-2 (Klebsiella pneumoniae, UniProt Q9F663); assay: Inhibition of nitrocefin cleavage by purified KPC-2; format: biochemical; conditions: nitrocefin reporter substrate, purified enzyme; read-out: Ki (KPC-2, NCF)
Chain of KPC-2 (Q9F663 25-293, looked up, species assumed): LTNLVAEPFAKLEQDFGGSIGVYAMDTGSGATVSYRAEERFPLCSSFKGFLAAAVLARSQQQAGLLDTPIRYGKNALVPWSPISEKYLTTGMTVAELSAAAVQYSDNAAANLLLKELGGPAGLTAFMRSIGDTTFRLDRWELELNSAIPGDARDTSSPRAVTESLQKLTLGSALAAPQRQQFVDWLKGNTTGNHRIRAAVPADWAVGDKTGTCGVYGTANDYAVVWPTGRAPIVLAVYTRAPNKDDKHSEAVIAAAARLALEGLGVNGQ
Method: as §2

[9] = minimum BLI concentration inhibiting growth with 4 μg/mL aztreonam
[10] = minimum BLI concentration inhibiting growth with 4 μg/mL tigemonam

Row | SMILES | TIG MPC4 CTX-M-15 KP1009 (KP1009 (CTX-M-15) [5]) | AZT MPC4 K-2 KP1004 (KP1004 (K-2)) | AZT MPC4 ECL1002 (ECL1002) | TIG MPC4 SHV-5 ec308 (ec308 (SHV-5) [6]) | Ki (SHV-12) | PAM1032/KPC-2 Biapenem MPC64 (PAM1032/KPC-2) | AZT MPC4 SHV-5 ec308 (ec308 (SHV-5) [2]) | TIG MPC4 TEM-10 ec302 (ec302 (TEM-10) [8]) | PAM11154/KPC-2 Biapenem MPC64 (PAM1154/KPC-2) | AZT MPC4 TEM-10 ec302 (ec302 (TEM-10) [1]) | TIG MPC4 CMY-6 EC1010 (EC1010 (CMY-6) [7]) | AZT MPC4 CTX-M-14 KP1005 (KP1005 (CTX-M-14)) | AZT MPC4 CMY-6 EC1010 (EC1010 (CMY-6) [3]) | AZT MPC4 CTX-M-15 KP1009 (KP1009 (CTX-M-15) [4]) | Ki (KPC-2) | also measured
1 | C[C@H]1[C@H](NC(=O)/C(=N\OC(C)(C)C(=O)O)c2csc(N)n2)C(=O)N1S(=O)(=O)O [Aztreonam, reference compound] |  |  |  |  |  |  |  |  |  |  |  |  |  |  |  | MIC (KP1004 (K-2); read-out: Aztreonam MIC): > 128 µg/mL; MIC (ec302 (TEM-10) [1]; read-out: Aztreonam MIC): 128 µg/mL; MIC (KP1005 (CTX-M-14); read-out: Aztreonam MIC): > 128 µg/mL; MIC (ec308 (SHV-5) [2]; read-out: Aztreonam MIC): > 128 µg/mL; MIC (EC1010 (CMY-6) [3]; read-out: Aztreonam MIC): > 128 µg/mL; MIC (KP1009 (CTX-M-15) [4]; read-out: Aztreonam MIC): > 128 µg/mL
2 | O=C(CSC(F)(F)F)N[C@H]1Cc2cccc(C(=O)O)c2OB1O [Compound 1, (R)-2-hydroxy-3-(2-(trifluoromethylthio)acetamido)-3,4-dihydro-2H-benzo[e][1,2]oxaborinine-8-carboxylic acid] | Y (Y = MIC of 1 μg/mL to 10 μg/mL) | Y (Y = MIC of 1 μg/mL to 10 μg/mL) | Y (Y = MIC of 1 μg/mL to 10 μg/mL) | X (X = MIC of less than 1 μg/mL) | < 1 nM | Z (Z Greater than 40) | X (X = MIC of less than 1 μg/mL) | Z (key: X = MIC of less than 1 μg/mL; Y = MIC of 1 μg/mL to 10 μg/mL; Z = MIC of greater than 10 μg/mL) |  |  |  |  |  |  |  | PAM1154/KPC-2 Biapenem MPC64 (PAM1154/KPC-2): X (key: X = Less than 10; Y = 10 to 40; Z Greater than 40); AZT MPC4 TEM-10 ec302 (ec302 (TEM-10) [1]; [9]): Y (Y = MIC of 1 μg/mL to 10 μg/mL); TIG MPC4 CMY-6 EC1010 (EC1010 (CMY-6) [7]; [10]): X (X = MIC of less than 1 μg/mL); AZT MPC4 CTX-M-14 KP1005 (KP1005 (CTX-M-14); [9]): Y (Y = MIC of 1 μg/mL to 10 μg/mL); AZT MPC4 CMY-6 EC1010 (EC1010 (CMY-6) [3]; [9]): Y (Y = MIC of 1 μg/mL to 10 μg/mL); AZT MPC4 CTX-M-15 KP1009 (KP1009 (CTX-M-15) [4]; [9]): Y (Y = MIC of 1 μg/mL to 10 μg/mL)
3 | Cn1nnnc1SCC(=O)N[C@H]1Cc2cccc(C(=O)O)c2OB1O [Compound 2, (R)-2-hydroxy-3-(2-(1-methyl-1H-tetrazol-5-ylthio)acetamido)-3,4-dihydro-2H-benzo[e][1,2]oxaborinine-8-carboxylic acid] | Y (Y = MIC of 1 μg/mL to 10 μg/mL) | Y (Y = MIC of 1 μg/mL to 10 μg/mL) | Y (Y = MIC of 1 μg/mL to 10 μg/mL) | X (X = MIC of less than 1 μg/mL) | < 1 nM | Z (Z Greater than 40) | X (X = MIC of less than 1 μg/mL) | Y (key: X = MIC of less than 1 μg/mL; Y = MIC of 1 μg/mL to 10 μg/mL; Z = MIC of greater than 10 μg/mL) | Y (Y = 10 to 40) | Y (key: X = MIC of less than 1 μg/mL; Y = MIC of 1 μg/mL to 10 μg/mL; Z = MIC of greater than 10 μg/mL) | X (key: X = MIC of less than 1 μg/mL; Y = MIC of 1 μg/mL to 10 μg/mL; Z = MIC of greater than 10 μg/mL) | X (key: X = MIC of less than 1 μg/mL; Y = MIC of 1 μg/mL to 10 μg/mL; Z = MIC of greater than 10 μg/mL) | Y (key: X = MIC of less than 1 μg/mL; Y = MIC of 1 μg/mL to 10 μg/mL; Z = MIC of greater than 10 μg/mL) | Y (key: X = MIC of less than 1 μg/mL; Y = MIC of 1 μg/mL to 10 μg/mL; Z = MIC of greater than 10 μg/mL) |  | 
4 | CN(C)C(=O)C(=O)N[C@H]1Cc2cccc(C(=O)O)c2OB1O [Compound 9, (R)-3-(2-(dimethylamino)-2-oxoacetamido)-2-hydroxy-3,4-dihydro-2H-benzo[e][1,2]oxaborinine-8-carboxylic acid] | Y (Y = MIC of 1 μg/mL to 10 μg/mL) | Y (Y = MIC of 1 μg/mL to 10 μg/mL) | Y (Y = MIC of 1 μg/mL to 10 μg/mL) | Y (Y = MIC of 1 μg/mL to 10 μg/mL) |  |  | X (X = MIC of less than 1 μg/mL) | Z (key: X = MIC of less than 1 μg/mL; Y = MIC of 1 μg/mL to 10 μg/mL; Z = MIC of greater than 10 μg/mL) |  | Y (key: X = MIC of less than 1 μg/mL; Y = MIC of 1 μg/mL to 10 μg/mL; Z = MIC of greater than 10 μg/mL) | Y (key: X = MIC of less than 1 μg/mL; Y = MIC of 1 μg/mL to 10 μg/mL; Z = MIC of greater than 10 μg/mL) | Y (key: X = MIC of less than 1 μg/mL; Y = MIC of 1 μg/mL to 10 μg/mL; Z = MIC of greater than 10 μg/mL) | Y (key: X = MIC of less than 1 μg/mL; Y = MIC of 1 μg/mL to 10 μg/mL; Z = MIC of greater than 10 μg/mL) | Y (key: X = MIC of less than 1 μg/mL; Y = MIC of 1 μg/mL to 10 μg/mL; Z = MIC of greater than 10 μg/mL) | > 10 nM | 
5 | CN(C)C(=O)CC(=O)N[C@H]1Cc2cccc(C(=O)O)c2OB1O [Compound 10, (R)-3-(3-(dimethylamino)-3-oxopropanamido)-2-hydroxy-3,4-dihydro-2H-benzo[e][1,2]oxaborinine-8-carboxylic acid] | X (X = MIC of less than 1 μg/mL) | X (X = MIC of less than 1 μg/mL) | Y (Y = MIC of 1 μg/mL to 10 μg/mL) | Y (Y = MIC of 1 μg/mL to 10 μg/mL) | < 1 nM | Z (Z Greater than 40) | Y (Y = MIC of 1 μg/mL to 10 μg/mL) |  | Y (Y = 10 to 40) | Y (key: X = MIC of less than 1 μg/mL; Y = MIC of 1 μg/mL to 10 μg/mL; Z = MIC of greater than 10 μg/mL) | X (key: X = MIC of less than 1 μg/mL; Y = MIC of 1 μg/mL to 10 μg/mL; Z = MIC of greater than 10 μg/mL) | Y (key: X = MIC of less than 1 μg/mL; Y = MIC of 1 μg/mL to 10 μg/mL; Z = MIC of greater than 10 μg/mL) | X (key: X = MIC of less than 1 μg/mL; Y = MIC of 1 μg/mL to 10 μg/mL; Z = MIC of greater than 10 μg/mL) | X (key: X = MIC of less than 1 μg/mL; Y = MIC of 1 μg/mL to 10 μg/mL; Z = MIC of greater than 10 μg/mL) | > 10 nM | TIG MPC4 TEM-10 ec302 (ec302 (TEM-10) [8]; [10]): Z (Z = MIC of greater than 10 μg/mL)
6 | Nc1nnc(C(=O)N[C@H]2Cc3cccc(C(=O)O)c3OB2O)s1 [Compound 19, (R)-3-(5-amino-1,3,4-thiadiazole-2-carboxamido)-2-hydroxy-3,4-dihydro-2H-benzo[e][1,2]oxaborinine-8-carboxylic acid] | Y (Y = MIC of 1 μg/mL to 10 μg/mL) | Y (Y = MIC of 1 μg/mL to 10 μg/mL) | Y (Y = MIC of 1 μg/mL to 10 μg/mL) | X (X = MIC of less than 1 μg/mL) | < 1 nM |  | X (X = MIC of less than 1 μg/mL) |  |  | Y (key: X = MIC of less than 1 μg/mL; Y = MIC of 1 μg/mL to 10 μg/mL; Z = MIC of greater than 10 μg/mL) | X (key: X = MIC of less than 1 μg/mL; Y = MIC of 1 μg/mL to 10 μg/mL; Z = MIC of greater than 10 μg/mL) | Y (key: X = MIC of less than 1 μg/mL; Y = MIC of 1 μg/mL to 10 μg/mL; Z = MIC of greater than 10 μg/mL) |  | Y (key: X = MIC of less than 1 μg/mL; Y = MIC of 1 μg/mL to 10 μg/mL; Z = MIC of greater than 10 μg/mL) | > 10 nM | 
